The source of these data is patent US20140128337A1, “Curcuminoids in Combination Docetaxel for the Treatment of Cancer and Tumour Metastasis” (Institut National de la Sante et de la Recherche Medicale …, priority 2009, published 2014).

Molecules are shown by their SMILES.

One series addresses T1, P-glycoprotein (Pgp) (Homo sapiens, UniProt P08183).
T1 construct: expressed in transfected cells; host or cells: MDCK (canine kidney) cells stably transfected with human MDR1
The experiment in a line: Inhibition of [3H]-VBL efflux by MDCK-MDR1 cells. Format: cell-based. As to conditions: CV-3988 10 uM, 30-min pre-exposure.

The next series concerns MCF7 cells. As to the kind of experiment: MCF7 cell survival, Ho assay. Format: cell-based, human. To be noted: DTX 5 uM (clinical dose), 72 h, P<0.01. On the procedure:
(§1) The drugs were administered in DMSO 0.5%. Cell proliferation and attachment to the matrix were determined by measuring the amount of resazurin reduced by esterases from living cells (RTT assay) and by measuring the amount of attached biomass with the DNA binding agent (Ho 33342). Fluorescence was assayed at 590/630 nm (RTT assay) or 360/460 nm (Ho assay) as described in (Barthomeuf et al. Planta Med 2002).
Treatment by DTX at clinical dose contributes to induction of drug resistance. […] We finally examined the effect of DTX on MCF7 cell survival and HIF-1 transcription. In this aim, DTX was tested at 2 concentrations 1 nM and 5 uM (a concentration representative of blood levels after DTX administration, Investigator Brochure 2002). Al tests were carried out on highly proliferative cells cultured in MEM medium supplemented with 10% FBS. Survival was assayed with the Ho assay after 6 h and 72 h.

For the next series, the system named is survivin. As to the kind of experiment: Western blot of survivin in MCF7 cells. In kind it is cell-based, human. To be noted: MCF7, DTX at clinical doses. As to the method: (§2) Western blot: After treatment, control and treated cells were washed with PBS, then incubated in PBS containing 1 mM of each NaF and Na3VO4 and solubilized on ice in lysis buffer [150 mM NaCl, 10 mM Tris-HCl, pH 7.4, 1 mM EDTA, 1 mM EGTA, 1 mM NaF, 1 mM Na3VO4, 0.5% (v/v) Nonidet P-40, and 1% (v/v) Triton X-100] or in FosRipa buffer (10 mM Tris/HCl pH 7.5, 250 mM NaCl, 0.1% SDS, 1% Nonidet P40, 1% sodium deoxycholate). When needed insoluble pellets were solubilized in Laemmli samples buffer (62.5 mM Tris-HCl pH 6.8, 2.4% SDS, 100 mM DDT, 10% glycerol, 1 mM EDTA, 0.001% bromphenol blue), heated for 5 min at 96° C. and centrifuged briefly before loading. Protein concentrations and Western blotting was performed according to standard procedures. Equal amounts of protein (50 μg) were loaded for separation via 7.5% SDS-PAGE. Mouse monoclonal antisera directed against HIF-1α or survivin were used as primary antibodies and horseradish peroxidase-coupled anti-mouse (Dako) as secondary antibodies.

In a further series the test system is HIF-1α. The experiment in a line: Western blot of HIF-1α in MCF7 cells. In kind it is cell-based, human. As to the method:
as §2, with “When needed insoluble pellets were solubilized in Laemmli samples buffer (62.5 mM Tris-HCl pH 6.8, 2.4% SDS, 100 mM DDT, 10% glycerol, 1 mM EDTA, 0.001% bromphenol blue), heated for 5 min at 96° C. and centrifuged briefly before loading.” left out, “Equal amounts of protein (50 μg) were loaded for separation via 7.5% SDS-PAGE.” left out
Then HIF-1α was assessed by Western blotting.

The conditions of series [1]: DTX treatment alone; cited from earlier work.
The next series concerns PAF synthesis. As to the kind of experiment: PAF synthesis, incorporation of [3H]-acetate into lyso-PAF in MDCK-MDR1 cells. Format: cell-based, canine. As to conditions: curcumin 30 min, doses observable in man. On the procedure: PAF synthesis: PAF synthesis was measured by incorporation of [^3H]-acetate into lyso-PAF accordingly to the protocol described in (Bernatchez PN et al. Br. J. Pharmacol. 2001 134: 1252-1262 and Barthomeuf C. et al. Free Rad Biol Med 2006, 40: 581-590). […] The reaction was stopped by addition of acidified methanol. Polar lipids were isolated according to Bligh and Dyer. After solvent evaporation under N2, ^3H-PAF was purified by HPLC on silica gel, and quantified by radioactivity counting vs authentic ^3H-PAF.

Series [2] has as its system PA1 ovarian carcinoma cells. As to the kind of experiment: Cell proliferation, resazurin reduction test (RTT assay). To be noted: curcumin 10 uM. Format: cell-based, human. On the procedure:
(§3) Cell culture: Madine Darby canine kidney (MDCK-MDR1) cells, provided by Amanda Yancy (AstraZeneca Pharmaceuticals), were cultured in DMEM supplemented with 10% FBS as reported previously (Barthomeuf et al. 2005). Human primary fibroblasts were purchased from Biopredic International (Rennes, France). Human MCF7 (ER+breast), A549 (non small cell lung), PC3 (androgen-resistant prostate) DLD1 (colon), PA1 (ovary), MDA-mb-231 (ER-, PTEN positive), MDA-mb-468 (ER-, PTEN negative) carcinoma and U87 (glioblastoma) lines were purchased from the European Collection of Cell Cultures (ECACC,
(§4) Salibury, UK) or the American Type Culture Collection (ATCC, Manassas, Va.). Cells were cultured in modified Eagle's medium (MEM) supplemented with 10% fetal calf serum, 2 mM L-glutamine and 100 units/ml penicillin, and 100 μg/ml streptomycin (Barthomeuf et al. 2002) or MEM supplemented with 1 mM sodium pyruvate and containing 10% FBS and antibiotics (U-87). The cells were cultured at 37° C. under a humidified 95%-5% (v/v) mixture of air and CO2.
as §1
(§5) The human tested lines include highly invasive U87 glioblastoma cells (SphK1 overexpression), 5 human carcinoma lines: weakly invasive MCF7 (estrogen receptor (ER) and PTEN positive) and metastatic MDA-mb-468 (ER and PTEN lack of function) breast carcinoma cells, metastatic PC3 (androgen resistant, p53 loss of function) prostate carcinoma cells, highly proliferative PA1 ovarian carcinoma cells and DLD1 (Pgp-positive) colon carcinoma cells. Primary fibroblasts were used as a model of human non-tumoral cells. Assays were conducted on exponentially growing human cells cultured overnight in MEM supplemented with 10% FBS. […] This supports a value of curcumin/DTX combination for treatment of tumors displaying these characteristics.

For series [3], the system named is MDA-mb-468 breast carcinoma cells. The description is as above. Format: cell-based, human. On the procedure:
as §3, §4, §1, §5

The subject of the next series is primary fibroblasts. The series is described as above. As to conditions: curcumin 10 uM. Format: cell-based, human. On the procedure: as §3, §4, §1, §5
In series [4] the test system is panel of cancer lines issued from human solid tumors. The experiment in a line: Antiproliferative effect on a panel of cancer lines, resazurin reduction test. Format: cell-based. As to conditions: curcumin 10 uM. As to the method: as §3
(§6) Salibury, UK) or the American Type Culture Collection (ATCC, Manassas, Va.). Cells were cultured in modified Eagle's medium (MEM) supplemented with 10% fetal calf serum, 2 mM L-glutamine and 100 units/ml penicillin, and 100 μg/ml streptomycin (Barthomeuf et al. 2002) or MEM supplemented with 1 mM sodium pyruvate and containing 10% FBS and antibiotics (U-87). […]
The drugs were administered in DMSO 0.5%. Cell proliferation and attachment to the matrix were determined by measuring the amount of resazurin reduced by esterases from living cells (RTT assay) and by measuring the amount of attached biomass with the DNA binding agent (Ho 33342). Fluorescence was assayed at 590/630 nm (RTT assay) or 360/460 nm (Ho assay) as described in (Barthomeuf et al. Planta Med 2002). […]

Series [5] deals with advanced colorectal cancer. As to conditions: 36-180 mg/day; cited from earlier work.
Another series concerns U87 glioblastoma cells. As to the kind of experiment: Curcumin/DTX co-treatment, cell proliferation and survival. In kind it is cell-based, human. To be noted: curcumin 10 uM + DTX 1 nM, 48 h co-treatment. As to the method:
as §3, §6, §1

T1 sequence (P08183 whole entry): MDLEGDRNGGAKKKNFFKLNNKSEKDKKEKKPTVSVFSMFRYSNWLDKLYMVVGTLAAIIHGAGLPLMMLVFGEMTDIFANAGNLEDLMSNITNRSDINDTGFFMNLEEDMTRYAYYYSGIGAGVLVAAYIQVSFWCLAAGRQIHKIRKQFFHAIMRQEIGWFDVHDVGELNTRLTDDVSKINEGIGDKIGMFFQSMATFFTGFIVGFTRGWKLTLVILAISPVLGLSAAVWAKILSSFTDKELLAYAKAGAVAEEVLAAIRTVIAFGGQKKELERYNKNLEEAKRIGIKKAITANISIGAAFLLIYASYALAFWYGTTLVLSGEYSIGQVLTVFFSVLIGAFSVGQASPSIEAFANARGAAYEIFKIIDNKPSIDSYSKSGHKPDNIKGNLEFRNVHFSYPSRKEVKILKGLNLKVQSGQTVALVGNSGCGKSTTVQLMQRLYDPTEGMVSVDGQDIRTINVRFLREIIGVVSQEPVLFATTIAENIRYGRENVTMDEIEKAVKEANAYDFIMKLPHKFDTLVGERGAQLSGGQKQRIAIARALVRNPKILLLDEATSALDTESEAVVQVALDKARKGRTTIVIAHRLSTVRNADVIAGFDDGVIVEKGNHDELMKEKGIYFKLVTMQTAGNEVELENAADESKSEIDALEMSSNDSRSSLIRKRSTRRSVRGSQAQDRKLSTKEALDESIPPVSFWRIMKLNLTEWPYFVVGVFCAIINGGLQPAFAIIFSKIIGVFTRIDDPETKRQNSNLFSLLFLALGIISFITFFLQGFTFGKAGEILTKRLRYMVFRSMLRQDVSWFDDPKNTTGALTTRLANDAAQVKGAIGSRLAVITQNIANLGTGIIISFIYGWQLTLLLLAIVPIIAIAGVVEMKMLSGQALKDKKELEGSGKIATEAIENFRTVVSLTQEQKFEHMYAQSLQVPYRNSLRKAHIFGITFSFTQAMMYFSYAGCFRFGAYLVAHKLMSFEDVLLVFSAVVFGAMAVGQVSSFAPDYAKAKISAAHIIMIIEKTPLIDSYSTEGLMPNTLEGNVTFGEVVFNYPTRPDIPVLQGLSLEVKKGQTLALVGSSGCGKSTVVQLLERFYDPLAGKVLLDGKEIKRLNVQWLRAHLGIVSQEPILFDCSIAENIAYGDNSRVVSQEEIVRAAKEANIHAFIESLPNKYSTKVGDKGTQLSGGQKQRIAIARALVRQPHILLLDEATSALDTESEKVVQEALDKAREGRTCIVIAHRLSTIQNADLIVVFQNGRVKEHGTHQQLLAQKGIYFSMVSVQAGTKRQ
Description for P-glycoprotein (Pgp): Inhibition of [^3H]-VBL efflux by MDCK-MDR1 cells: [^3H]-VBL was determined by scintillation counting accordingly to (Barthomeuf et al. Cancer Chemother Pharmacol 2005; 56: 173-81). […] The cells were then exposed for 120 min to 20 nM of ^3H-VBL (0.23 μCi). ^3H-VBL accumulation was stopped by washing the cells (5-fold) with cold PBS (150 mM NaCl, 2.7 mM KCl, 1.3 mM KH2PO4, 8.1 mM, Na2HPO4, pH 7.4). The cells were lysed with 0.1% Triton X-100 and the radioactivity was counted.

Take `CCCCCCCCCCCCCCCCCCNC(=O)OCC(COP(=O)([O-])OCC[n+]1ccsc1)OC` (stereo not drawn) [CV-3988]: the “(3H)-VBL accumulation in MDCK-MDR1 cells” value on P-glycoprotein (Pgp) is listed as “promotes (^3H)-VBL accumulation”.
`CC(=O)O[C@@]12CO[C@@H]1C[C@H](O)[C@@]1(C)C(=O)[C@H](O)C3=C(C)[C@@H](OC(=O)[C@H](O)[C@@H](NC(=O)OC(C)(C)C)c4ccccc4)C[C@@](O)([C@@H](OC(=O)c4ccccc4)[C@H]21)C3(C)C` [DTX, (2R,3S)-N-carboxy-3-phenylisoserine, N-tert-butyl ester, 13-ester with 5, 20-epoxy-1,2,4,7, 10, 13-hexahydroxytax-11-en-9-one 4-acetate 2-benzoate, trihydrate] had an MCF7 survival decreased in the series with MCF7 cells of 92%. Moreover, in the series on survivin, the “survivin expression in surviving cells vs control” value is “higher amount of survivin than control cells”. Besides, the “HIF-1α in resistant sub-populations vs control” value is listed as “higher amounts of HIF-1α than control cells” in the series with HIF-1α (MCF7, DTX at clinical doses) and “less HIF-1α than control cells” in the series with HIF-1α (MCF7, DTX at low concentration). Moreover, in series [1], the “number of objective responses usually observed” value is given as “around 50%”.
With `COc1cc(/C=C/C(=O)CC(=O)/C=C/c2ccc(O)c(OC)c2)ccc1O` [curcumin, (1E,6E)-1,7-bis (4-hydroxy-3-methoxyphenyl)-1,6-heptadiene-3,5-dione], the PAF synthesis entry in the series on PAF synthesis was “down-regulation of PAF synthesis”. In addition, the “proliferation of PA1 cells” value in [2] is “suppressed”. For the same compound, the proliferation decreased in series [3] (curcumin 10 uM) is 23%. Further, the “effect of co-treatment on DTX efficacy” value is “enhances in a synergistic manner DTX efficacy” in series [3] (curcumin 10 uM + DTX 1 nM, 48 h co-treatment) and “enhances in a synergistic manner DTX efficacy” with U87 glioblastoma cells. Also, the “toxicity for primary fibroblasts” value in the series on primary fibroblasts is reported as “without significant toxicity”. Also, the “growth of all tested tumor lines” value in series [4] was “strongly impairs the growth”. Also, in series [5], the “stabilisation, patients” value is on record as 5/15. Also, the “HIF-1α level after curcumin post-treatment” value in the series on HIF-1α (MCF7, DTX 5 uM 72 h, then 6 h EGF 10 ng/mL + MG-132 with or without curcumin 10 uM) is reported as “lower amount of HIF-1α”.
